In publication PMC6615597, “Spermine in semen of male sea lamprey acts as a sex pheromone” (PLoS Biology, 2019):
Like-named read-outs stand apart in the source and are kept apart here.

Legend:
[1] = test system: TAAR348 (trace amine-associated receptor (TAAR)-like receptor 348)
[2] = test system: T1, TAAR348 (trace amine-associated receptor (TAAR)-like receptor 348); experiment: TR-FRET cAMP assay in TAAR348-expressing HEK293T cells; inhibition of […] spermine response; format: cell-based, Petromyzon marinus
T1 construct: full-length ORF (348 residues) with N-terminal Rho-tag, expressed in HEK293T

[3] = test system: T1, TAAR348 (trace amine-associated receptor (TAAR)-like receptor 348); experiment: TR-FRET cAMP assay in TAAR348-expressing HEK293T cells (agonist); format: cell-based, Petromyzon marinus

Compound: NCCCNCCCCNCCCN [spermine]
- EC50 [1]: 34 ± 1 µM

Compound: C1CNCCNCCNCCN1 [SP20, 1,4,7,10-tetraazacyclododecane]
- IC50 [2]: 0.6 ± 0.1 µM

Compound: NCCCNCCCCNCCCNC(=O)Cc1cccc2ccccc12 [SP21, 1-naphthylacetyl spermine]
- EC50 [3]: 5 ± 1 µM
